pIC50: −log10 of the molar value.

T1 sequence (P02607 2-151): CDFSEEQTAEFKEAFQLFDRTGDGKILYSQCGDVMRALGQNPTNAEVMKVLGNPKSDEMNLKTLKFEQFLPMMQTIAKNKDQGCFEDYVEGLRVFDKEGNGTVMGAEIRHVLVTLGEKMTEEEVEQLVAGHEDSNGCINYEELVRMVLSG
T1 sequence (P10587 84-789): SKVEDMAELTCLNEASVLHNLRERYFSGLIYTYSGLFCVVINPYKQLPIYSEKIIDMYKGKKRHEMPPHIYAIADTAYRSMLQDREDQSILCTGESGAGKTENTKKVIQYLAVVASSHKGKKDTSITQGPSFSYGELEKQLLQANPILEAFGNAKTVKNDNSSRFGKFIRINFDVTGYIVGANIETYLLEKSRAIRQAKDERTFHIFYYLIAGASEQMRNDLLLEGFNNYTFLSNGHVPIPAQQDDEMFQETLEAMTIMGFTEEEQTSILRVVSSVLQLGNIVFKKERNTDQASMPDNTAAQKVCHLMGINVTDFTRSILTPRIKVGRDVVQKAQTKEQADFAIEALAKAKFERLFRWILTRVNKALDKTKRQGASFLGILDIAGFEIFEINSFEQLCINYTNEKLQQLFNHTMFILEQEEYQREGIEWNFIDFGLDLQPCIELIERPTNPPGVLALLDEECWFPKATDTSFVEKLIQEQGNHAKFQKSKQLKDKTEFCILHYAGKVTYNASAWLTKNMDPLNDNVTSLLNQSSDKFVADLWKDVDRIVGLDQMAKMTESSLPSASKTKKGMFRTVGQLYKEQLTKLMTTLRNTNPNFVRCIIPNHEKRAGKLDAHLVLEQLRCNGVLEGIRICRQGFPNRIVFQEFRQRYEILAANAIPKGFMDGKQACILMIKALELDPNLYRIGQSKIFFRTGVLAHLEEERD

The test addresses T1, chicken gizzard smooth muscle myosin subfragment-1 chemically crosslinked to cardiac or skeletal actin (Gallus gallus, UniProt P10587).
T1 construct: chicken gizzard smooth muscle myosin subfragment-1; from tissue; host or cells: chicken gizzard
Nature of the test: Smooth muscle myosin ATPase dose response assay (pyruvate kinase/horseradish peroxidase/pyruvate oxidase-coupled, amplex red fluorescence). The settings on record: read-out: IC50 Arithmetic Mean. Format: biochemical. Put shortly:
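Lead-optimization format: ATPase coupled via pyruvate kinase, pyruvate oxidase and peroxidase, pH 7.00 at 22° C, with 0.15 mM ATP, 100 mM KCl, 2 mM MgCl2, 2 mM phosphate and 0.1 mM amplex red (final). Crosslinked S1 titrated empirically for set hydrolysis rate; fluorescence (ex 480/em 615 nm) dose curves fit 4-parameter for IC50.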
Broadly, the pIC50 is the negative decadic logarithm of the IC50, by convention in mol/L. For the compound `CC(C)NC(=O)c1ccc(-c2ccccc2)nc1NCCc1ccccn1` [N-(methylethyl){6-phenyl-2-[(2-(2-pyridyl)ethyl)amino](3-pyridyl)}carboxamide], the pIC50 was 4.88. Under `O=C(NCc1cccnc1)c1ccc(-c2csc(CO)c2)nc1NCCc1cccc(F)c1` [(2-{[2-(3-fluorophenyl)ethyl]amino}-6-[5-(hydroxymethyl)(3-thienyl)](3-pyridyl))-N-(3-pyridylmethyl)carboxamide] stands 7.14. For `N#Cc1ccccc1-c1ccc(C(=O)N[C@@H]2CCCNC2=O)c(NCCc2cccc(F)c2)n1` [N-((3R)-2-oxo(3-piperidyl))(6-(2-cyanophenyl)-2-{[2-(3-fluorophenyl)ethyl]amino}(3-pyridyl))carboxamide] the value was 6.45. For the compound `N#Cc1ccccc1-c1ccc(C(=O)NCc2ncco2)c(NCCc2cccc(F)c2)n1` [(6-(2-cyanophenyl)-2-{[2-(3-fluorophenyl)ethyl]amino}(3-pyridyl))-N-(1,3-oxazol-2-ylmethyl)carboxamide], the pIC50 was 7.40.

On to `N#Cc1cccc(-c2ccc(C(=O)NCc3cccnc3)c(NCCc3ccccn3)n2)c1` [{6-(3-cyanophenyl)-2-[(2-(2-pyridyl)ethyl)amino](3-pyridyl)}-N-(3-pyridylmethyl)carboxamide], for which the pIC50 was 5.52.

In the case of `COC(=O)N1CCC[C@@H]1CNC(=O)c1ccc(-c2ccccc2C#N)nc1NCCc1cccc(F)c1` [methyl (2R)-2-{[(6-(2-cyanophenyl)-2-{[2-(3-fluorophenyl)ethyl]amino}(3-pyridyl))carbonylamino]methyl}pyrrolidinecarboxylate], the pIC50 is 7.00. Turning to `NCC1CCCCN1C(=O)c1ccc(-c2ccccc2)nc1NCCc1ccccn1` (stereo not drawn) [2-(aminomethyl)piperidyl 6-phenyl-2-[(2-(2-pyridyl)ethyl)amino](3-pyridyl) ketone], the negative-log IC50 (pIC50) was 4.74.

On to `C[C@H](CNC(=O)c1cc(F)c(-c2cnn(C)c2)nc1NCCc1cccc(F)c1)NCCO` [N-{(2R)-2-[(2-hydroxyethyl)amino]propyl}(5-fluoro-2-{[2-(3-fluorophenyl)ethyl]amino}-6-(1-methylpyrazol-4-yl)(3-pyridyl))carboxamide], for which the pIC50 is 6.19. For `C[C@@H](NC(=O)c1ccc(-c2ccccc2C#N)nc1NCCc1cccc(F)c1)C(N)=O` the value was 6.27; for `Cn1cc(-c2nc(NCCc3cccc(F)c3)c(C(=O)NC[C@H]3CCCN3C(=O)CCCN)cc2C#N)cn1` [N-{[(2R)-1-(4-aminobutanoyl)pyrrolidin-2-yl]methyl}(5-cyano-2-{[2-(3-fluorophenyl)ethyl]amino}-6-(1-methylpyrazol-4-yl)(3-pyridyl))carboxamide], 6.68; for `COC(=O)N1CCCC[C@@H]1CNC(=O)c1ccc(-c2ccccc2C#N)nc1NCCc1cccc(F)c1` [methyl (2R)-2-{[(6-(2-cyanophenyl)-2-{[2-(3-fluorophenyl)ethyl]amino}(3-pyridyl))carbonylamino]methyl}piperidinecarboxylate], 5.37.

Turning to `N#Cc1ccccc1-c1ccc(C(=O)NC[C@H]2CN(CCN)CC(=O)N2)c(NCCc2cccc(F)c2)n1` [N-{[(2S)-4-(2-aminoethyl)-6-oxopiperazin-2-yl]methyl}(6-(2-cyanophenyl)-2-{[2-(3-fluorophenyl)ethyl]amino}(3-pyridyl))carboxamide], the pIC50 was 6.21. For `O=C1CNCC(CNC(=O)c2ccc(-c3ccn[nH]3)nc2NCCc2cccc(F)c2)N1` (stereo not drawn) [(2-{[2-(3-fluorophenyl)ethyl]amino}-6-pyrazol-5-yl(3-pyridyl))-N-[(6-oxopiperazin-2-yl)methyl]carboxamide], the pIC50 is 5.16.

For `O=C(NCc1cccnc1)c1ccc(-c2ccccc2)nc1NCCc1ccc(F)c(F)c1` [(2-{[2-(3,4-difluorophenyl)ethyl]amino}-6-phenyl(3-pyridyl))-N-(3-pyridylmethyl)carboxamide], the pIC50 was 6.28. On to `CN(CCNC(=O)c1ccc(-c2ccccc2C#N)nc1NCCc1cccc(F)c1)C(=O)CN` [2-amino-N-{2-[(6-(2-cyanophenyl)-2-{[2-(3-fluorophenyl)ethyl]amino}(3-pyridyl))carbonylamino]ethyl}-N-methylacetamide], for which the pIC50 is 5.86. Under `C[C@@H](CNC(=O)c1ccc(-c2ccccc2C#N)nc1NCCc1cccc(F)c1)N(C)C(=O)CCCN` stands 5.17; under `Cn1cc(-c2nc(NCCc3cccc(F)c3)c(C(=O)NCC(O)CO)cc2F)cn1` (stereo not drawn) [N-(2,3-dihydroxypropyl)(5-fluoro-2-{[2-(3-fluorophenyl)ethyl]amino}-6-(1-methylpyrazol-4-yl)(3-pyridyl))carboxamide], 6.51. `N#Cc1ccccc1-c1nc(NCCc2cccc(F)c2)c(C(=O)NCc2cccnc2CN)cc1F` [N-{[2-(aminomethyl)(3-pyridyl)]methyl}(6-(2-cyanophenyl)-5-fluoro-2-{[2-(3-fluorophenyl)ethyl]amino}(3-pyridyl))carboxamide]: the negative logarithm of the IC50 (pIC50) was 8.22. `N#Cc1ccccc1-c1ccc(C(=O)NCC(CN)C(N)=O)c(NCCc2cccc(F)c2)n1` (stereo not drawn) [N-(3-amino-2-carbamoylpropyl)(6-(2-cyanophenyl)-2-{[2-(3-fluorophenyl)ethyl]amino}(3-pyridyl))carboxamide]: the pIC50 is 5.18. For `N#Cc1ccccc1-c1ccc(C(=O)NCC(N)=O)c(NCCc2cccc(F)c2)n1` [N-(carbamoylmethyl)(6-(2-cyanophenyl)-2-{[2-(3-fluorophenyl)ethyl]amino}(3-pyridyl))carboxamide] the value was 6.98; for `O=C(Nc1ccncc1)c1ccc(-c2ccccc2)nc1NCCc1ccccn1` [{6-phenyl-2-[(2-(2-pyridyl)ethyl)amino](3-pyridyl)}-N-(4-pyridyl)carboxamide], 5.28. For the compound `C[C@@H](CNC(=O)c1cc(F)c(-c2cnn(C)c2)nc1NCCc1cccc(F)c1)NC(=O)CN`, the pIC50 was 5.74. With `N#Cc1ccccc1-c1ccc(C(=O)NCC2CCNCC2)c(NCCc2cccc(F)c2)n1` [(6-(2-cyanophenyl)-2-{[2-(3-fluorophenyl)ethyl]amino}(3-pyridyl))-N-(4-piperidylmethyl)carboxamide], the pIC50 was 6.47. For `CC(C)(C)OC(=O)NCCCC(=O)N1CCC[C@@H]1CNC(=O)c1cc(F)c(-c2cn[nH]c2)nc1NCCc1cccc(F)c1` [N-[((2R)-1-{4-[(tert-butoxy)carbonylamino]butanoyl}pyrrolidin-2-yl)methyl](5-fluoro-2-{[2-(3-fluorophenyl)ethyl]amino}-6-pyrazol-4-yl(3-pyridyl))carboxamide] the value was 6.12; for `N#Cc1ccccc1-c1ccc(C(=O)NCC2CCCN(CCN)C2=O)c(NCCc2cccc(F)c2)n1` (stereo not drawn) [N-{[1-(2-aminoethyl)-2-oxo(3-piperidyl)]methyl}(6-(2-cyanophenyl)-2-{[2-(3-fluorophenyl)ethyl]amino}(3-pyridyl))carboxamide], 7.51. Under `OC(CNCc1ccccn1)c1ccc(-c2ccccc2)nc1NCCc1cccc(F)c1` (stereo not drawn) [1-(2-{[2-(3-fluorophenyl)ethyl]amino}-6-phenyl(3-pyridyl))-2-[(2-pyridylmethyl)amino]ethan-1-ol] stands 4.71; under `CC(=O)N1CC[C@H](CNC(=O)c2ccc(-c3ccccc3)nc2NCCc2ccccn2)C1` [N-[((3R)-1-acetylpyrrolidin-3-yl)methyl]{6-phenyl-2-[(2-(2-pyridyl)ethyl)amino](3-pyridyl)}carboxamide], 4.57; under `Cc1ccc(-c2ccc(C(=O)NCc3cccnc3)c(NCCc3cccc(F)c3)n2)c(C#N)c1` [(6-(2-cyano-4-methylphenyl)-2-{[2-(3-fluorophenyl)ethyl]amino}(3-pyridyl))-N-(3-pyridylmethyl)carboxamide], 6.00.

Regarding `O=C(NCc1cccnc1)c1ccc(-c2ccccc2Cl)nc1NCCc1ccccn1` [{6-(2-chlorophenyl)-2-[(2-(2-pyridyl)ethyl)amino](3-pyridyl)}-N-(3-pyridylmethyl)carboxamide], the pIC50 is 5.35. On to `N#Cc1ccccc1-c1ccc(C(=O)NCc2ccc(N3CCNCC3)nc2)c(NCCc2cccc(F)c2)n1` [(6-(2-cyanophenyl)-2-{[2-(3-fluorophenyl)ethyl]amino}(3-pyridyl))-N-[(6-piperazinyl(3-pyridyl))methyl]carboxamide], for which the pIC50 was 5.76.

For `N#Cc1ccccc1-c1ccc(C(=O)NC[C@H]2CCC(=O)N2CCCCN)c(NCCc2cccc(F)c2)n1` [N-{[(2R)-1-(4-aminobutyl)-5-oxopyrrolidin-2-yl]methyl}(6-(2-cyanophenyl)-2-{[2-(3-fluorophenyl)ethyl]amino}(3-pyridyl))carboxamide], the pIC50 was 7.29. For `CC(=O)Nc1ccc(-c2ccc(C(=O)NCc3cccnc3)c(NCCc3ccccn3)n2)cc1` [N-(4-{6-[(2-(2-pyridyl)ethyl)amino]-5-[N-(3-pyridylmethyl)carbamoyl]-2-pyridyl}phenyl)acetamide] the value was 5.91; for `O=C(NCc1ccsc1)c1ccc(-c2ccccc2)nc1NCCc1ccccn1` [{6-phenyl-2-[(2-(2-pyridyl)ethyl)amino](3-pyridyl)}-N-(3-thienylmethyl)carboxamide], 6.17; for `NCc1ncccc1CNC(=O)c1ccc(-c2cnn(CCO)c2)nc1NCCc1cccc(F)c1` [N-{[2-(aminomethyl)(3-pyridyl)]methyl}(2-{[2-(3-fluorophenyl)ethyl]amino}-6-[1-(2-hydroxyethyl)pyrazol-4-yl](3-pyridyl))carboxamide], 6.15. Under `N#Cc1ccccc1-c1ccc(C(=O)NC[C@H]2CCN2C(=O)CCN)c(NCCc2cccc(F)c2)n1` [N-{[(2R)-1-(3-aminopropanoyl)azetidin-2-yl]methyl}(6-(2-cyanophenyl)-2-{[2-(3-fluorophenyl)ethyl]amino}(3-pyridyl))carboxamide] stands 7.35; under `O=C(NCc1cccnc1)c1ccc(-c2ccccc2)nc1NCCc1ccc(O)cc1` [(2-{[2-(4-hydroxyphenyl)ethyl]amino}-6-phenyl(3-pyridyl))-N-(3-pyridylmethyl)carboxamide], 4.44.

The record behind these values is patent publication US7932270B2 (Cytokinetics, Inc., priority 2006, dated 2011).
